Reference: US20250082610A1, “COMPOSITION, METHOD FOR MICROORGANISM GROWTH SUPPRESSION IN COMPOSITION FOR ORAL USE, AND AGENT FOR POTENTIATION OF MICROORGANISM-GROWTH-SUPPRESSING EFFECT OF QUERCETIN OR GLYCOSIDE THEREOF” (SUNTORY HOLDINGS LIMITED, priority 2022, published 2025)

Columns and labels:
[1] = system: human β-defensin-3 (hBD-3); conditions: human immortalized keratinocyte cells (HaCaT cells); Patent Literature 1; cited from earlier work
[2] = system: human β-defensin-1 (hBD-1); conditions: human immortalized keratinocyte cells (HaCaT cells); Patent Literature 1; cited from earlier work
[3] = system: Escherichia coli NBRC 3972; assay: Sterilizing (microorganism growth inhibiting) effect, viable bacterial count; format: cell-based; conditions: one hour after inoculation, room temperature, phosphate-buffered saline, vs control; FIG. 1, result in words
Procedure: Escherichia coli (Escherichia coli NBRC 3972) was used as a test bacterium. Escherichia coli was inoculated onto a standard agar medium and cultured at 30° C. to 35° C. for 24 hours. After culturing, the bacterial count was adjusted to […] using saline, whereby a test bacterial solution was obtained. Phosphate-buffered saline and ergothioneine were mixed to prepare a test sample 1 (ergothioneine concentration: 100 ppm (0.01 wt %)). Phosphate-buffered saline and isoquercitrin were mixed to prepare a test sample 2 (isoquercitrin concentration: 100 ppm (0.01 wt %)). Phosphate-buffered saline, ergothioneine, and isoquercitrin were mixed to prepare a test sample 3 (ergothioneine concentration: 2.5 ppm (0.00025 wt %), isoquercitrin concentration: 100 ppm (0.01 wt %)). Phosphate-buffered saline, ergothioneine, and isoquercitrin were mixed to prepare a test sample 4 (ergothioneine concentration: 100 ppm (0.01 wt %), isoquercitrin concentration: 100 ppm (0.01 wt %)). Phosphate-buffered saline was used as control. A test sample (5 mL) was inoculated with a 0.05 mL test bacterial solution and left standing at room temperature. […] After culturing, the number of colonies formed was counted, and the viable bacterial count was calculated (n=3). The sterilizing effect (%) was determined from the viable bacterial count (average of n=3) using the following formula. […]

Staphylococcus aureus = conditions: Non-Patent Literature 1; cited from earlier work
Escherichia coli = conditions: Non-Patent Literature 1; cited from earlier work

SMILES: C[N+](C)(C)[C@@H](Cc1c[nH]c(=S)[nH]1)C(=O)[O-] [L-ergothioneine]
- expression level of mRNA in hBD-3 [1]: increased
- expression level of mRNA in hBD-1 [2]: increased
- Sterilizing effect on Escherichia coli [3]: no sterilizing effect

SMILES: O=c1c(O)c(-c2ccc(O)c(O)c2)oc2cc(O)cc(O)c12 [quercetin]
- inhibition of growth of Staphylococcus aureus (Staphylococcus aureus): inhibition of growth
- inhibition of growth of Escherichia coli (Escherichia coli): inhibition of growth
